Test results as given in ChEMBL document CHEMBL6121016, “Design, Synthesis, and Biological Evaluation of 1,3,4-Thiadiazole Derivatives as Novel Potent Peptide Deformylase Inhibitors for Combating Drug-Resistant Gram-Positive and -Negative Bacteria” (J Med Chem, 2025).
Values after ≈ are worked out from the molar mass of the structure shown. Active and inactive are the calls of the source. The calls are words filed in the database; no cut-off is given here.

What was measured:
[1] = tested on: Staphylococcus aureus; assay: Antibacterial activity against methicillin-resistant Staphylococcus aureus ATCC 43300 after 16 to 18 hrs by broth microdilution method; format: functional; conditions: time 16-18 hrs
[2] = tested on: Staphylococcus aureus; assay: Antibacterial activity against methicillin-resistant Staphylococcus aureus Bio-090770 after 16 to 18 hrs by broth microdilution method; format: functional; conditions: time 16-18 hrs
[3] = tested on: Acinetobacter baumannii; assay: Antibacterial activity against Acinetobacter baumannii Bio 34235 after 16 to 18 hrs by broth microdilution method; format: functional; conditions: time 16-18 hrs
[4] = tested on: Acinetobacter baumannii; assay: Antibacterial activity against Acinetobacter baumannii Bio 53250 after 16 to 18 hrs by broth microdilution method; format: functional; conditions: time 16-18 hrs
[5] = tested on: Escherichia coli; assay: Antibacterial activity against Escherichia coli ATCC 10668 after 16 to 18 hrs by broth microdilution method; format: functional; conditions: time 16-18 hrs
[6] = tested on: Acinetobacter baumannii; assay: Potency index, ratio of ciprofloxacin MIC to test compound MIC for antibacterial activity against drug-resistant Acinetobacter baumannii after 16 to 18 hrs by broth microdilution method; format: functional; conditions: time 16-18 hrs
[7] = tested on: Cell membrane; assay: Induction of cell membrane disruption in methicillin-resistant Staphylococcus aureus assessed as […] integrity by NucGreen/EthD-III costain fluorescent assay; format: subcellular
[8] = tested on: Staphylococcus aureus; assay: Induction of morphological changes in methicillin-resistant Staphylococcus aureus RB 3641 assessed as disintegration of cells at 8 times of MIC incubated for 4 hrs by Field emission scanning electron microscopic analysis; format: functional, organism-based
[9] = tested on: Acinetobacter baumannii; assay: Induction of intracellular ROS production in Acinetobacter baumannii Bio 53272 cells assessed as membrane potential imbalance incubated for 12 hrs by DCFH-DA probe based ROS assay; format: functional, organism-based
[10] = tested on: Staphylococcus aureus; assay: Anti-biofilm activity against mature methicillin-resistant Staphylococcus aureus at 8 microg/ml incubated for 24 hrs by microplate reader analysis; format: functional; conditions: dose 8 µg/ml
[11] = tested on: Staphylococcus aureus; assay: Anti-biofilm activity against methicillin-resistant Staphylococcus aureus assessed as growth inhibition at 4 microg/ml incubated for 24 hrs by microplate reader analysis relative to control; format: functional
[12] = tested on: Acinetobacter baumannii; assay: Bactericidal activity against drug-resistant Acinetobacter baumannii assessed as bacteriostatic efficiency at 0.5 to 2 microg/mL by time killing analysis; format: functional, organism-based; conditions: dose 0.5-2 µg/ml, time 0-25 hrs
[13] = Acute toxicity in normal mouse assessed as aberrant behaviors at 400 mg/kg, iv observed for 14 days; format: organism-based; conditions: in vivo, 336 h, time 14 day

Which MIC [1] does the source give for `CCCC[C@H](CN(O)C=O)C(=O)N1CCC[C@H]1c1nnc(-c2cccs2)s1` here?
Its MIC is 0.125 µg/mL (≈ 0.306 µM).

What about the MIC [2] of the same compound?
Its MIC is 0.25 µg/mL (≈ 0.612 µM).

And the MIC [3]?
The MIC was 4 µg/mL (≈ 9.79 µM).

And the MIC [4]?
Its MIC is 4 µg/mL (≈ 9.79 µM).

And the MIC [5]?
The MIC was 8 µg/mL (≈ 19.6 µM).

What about the Ratio [6] of the same compound?
The Ratio was >64.

What about the Activity [7] of the same compound?
Its Activity is “Active”.

And the Activity [8]?
Its Activity is “Active”.

And the Activity [9]?
The Activity was “Active”.

What about the Activity [10] of the same compound?
Its Activity is 60%.

What about the inhibition at 4 µg/mL [11] of the same compound?
The inhibition at 4 µg/mL was 88%.

What about the Activity [12] of the same compound?
The Activity was “Dose-dependent-effect”.

And the Activity [13]?
Its Activity is “Non-toxic”.
